Experimental data: ChEMBL document CHEMBL1201862, “PubChem BioAssay data set” (2004)
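Five compound concentrations were applied to cells in 96-well plates for 48 hours; endpoints were derived by simple linear interpolation of the resulting dose-response curve. GI50: concentration for 50% inhibition of growth.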 The source made the active and inactive calls. No stated cut-off is given here; in the data, active = GI50 up to about 1.1 µM and inactive = higher.

Assays:
Assay in all cases: NCI tumour cell line growth inhibition, 48 h
A498 = test system: A498
ACHN = test system: ACHN
EKVX = test system: EKVX
HL-60 = test system: HL-60
HOP-62 = test system: HOP-62
LOX IMVI = test system: LOX IMVI
M14 = test system: M14
MDA-MB-435 = test system: MDA-MB-435
Malme-3M = test system: Malme-3M
NCI-H226 = test system: NCI-H226
NCI-H460 = test system: NCI-H460
OVCAR-3 = test system: OVCAR-3
OVCAR-5 = test system: OVCAR-5
RPMI-8226 = test system: RPMI-8226
SF-268 = test system: SF-268
SK-MEL-28 = test system: SK-MEL-28
SK-MEL-5 = test system: SK-MEL-5
SK-OV-3 = test system: SK-OV-3
UACC-257 = test system: UACC-257

Measured: GI50

O=[N+]([O-])c1nccn1CCCNc1c2ccccc2[n+]([O-])c2ccccc12
inactive: A498 > 100 µM | ACHN > 100 µM | EKVX > 100 µM | HL-60 > 100 µM | HOP-62 > 100 µM | LOX IMVI > 100 µM | M14 > 100 µM | MDA-MB-435 > 100 µM | Malme-3M > 100 µM | NCI-H226 38.6 µM | NCI-H460 51.3 µM | OVCAR-3 > 100 µM | OVCAR-5 > 100 µM | RPMI-8226 > 100 µM | SF-268 > 100 µM | SK-MEL-28 > 100 µM | SK-MEL-5 > 100 µM | SK-OV-3 > 100 µM | UACC-257 > 100 µM

CC1=NN(c2ccc(S(=O)(=O)O)cc2)C(=O)/C1=C/c1ccc(Cl)cc1.c1ccncc1
inactive: A498 > 100 µM | ACHN > 100 µM | EKVX > 100 µM | HL-60 > 100 µM | HOP-62 > 100 µM | LOX IMVI > 100 µM | M14 > 100 µM | MDA-MB-435 > 100 µM | Malme-3M > 100 µM | NCI-H226 > 100 µM | NCI-H460 > 100 µM | OVCAR-3 > 100 µM | OVCAR-5 > 100 µM | RPMI-8226 > 100 µM | SF-268 > 100 µM | SK-MEL-28 > 100 µM | SK-MEL-5 > 100 µM | SK-OV-3 > 100 µM | UACC-257 > 100 µM

CC(C)C[C@H]1[C@@H](OCc2ccccc2)COS(=O)N1[C@H](C)c1ccccc1 (stereo partly specified)
inactive: A498 22.7 µM | ACHN 19.5 µM | EKVX 28.6 µM | HL-60 8.15 µM | HOP-62 19.1 µM | LOX IMVI 13.1 µM | M14 7.66 µM | MDA-MB-435 22.4 µM | Malme-3M 12.7 µM | NCI-H226 10.9 µM | NCI-H460 15.3 µM | OVCAR-3 10.2 µM | OVCAR-5 18.9 µM | RPMI-8226 5.51 µM | SF-268 24.2 µM | SK-MEL-28 37.6 µM | SK-MEL-5 10.2 µM | SK-OV-3 14.5 µM | UACC-257 16 µM

C[C@H]1[C@@H](c2ccccc2)O[B-](c2ccccc2)(c2ccccc2)[N+]1(C)C
inactive: A498 86.1 µM | ACHN 34.3 µM | EKVX > 100 µM | HL-60 > 100 µM | HOP-62 > 100 µM | LOX IMVI > 100 µM | M14 27.7 µM | MDA-MB-435 61.8 µM | Malme-3M 54.8 µM | NCI-H226 37.7 µM | NCI-H460 > 100 µM | OVCAR-3 40.6 µM | OVCAR-5 > 100 µM | RPMI-8226 31.3 µM | SF-268 > 100 µM | SK-MEL-28 48 µM | SK-MEL-5 28.1 µM | SK-OV-3 > 100 µM | UACC-257 84.1 µM

COc1ccc(N2C(=O)C3c4[nH]c5ccc(C)cc5c4C4CCC(C)CC4C3C2=O)cc1 (stereo unspecified)
inactive: A498 21.6 µM | ACHN 99.3 µM | EKVX > 100 µM | HL-60 > 10 µM | LOX IMVI > 100 µM | M14 > 100 µM | MDA-MB-435 > 100 µM | Malme-3M > 100 µM | NCI-H226 > 100 µM | NCI-H460 > 100 µM | OVCAR-3 58.1 µM | OVCAR-5 > 100 µM | RPMI-8226 > 100 µM | SF-268 37.8 µM | SK-MEL-5 > 100 µM | SK-OV-3 25.3 µM | UACC-257 > 100 µM

O=C(NCc1cccs1)OC1CC2CCC1C2 (stereo unspecified)
inactive: A498 > 100 µM | ACHN > 100 µM | EKVX > 100 µM | HL-60 > 100 µM | HOP-62 > 100 µM | LOX IMVI > 100 µM | M14 > 100 µM | MDA-MB-435 > 100 µM | Malme-3M > 100 µM | NCI-H226 > 100 µM | NCI-H460 > 100 µM | OVCAR-3 > 100 µM | OVCAR-5 > 100 µM | RPMI-8226 > 100 µM | SF-268 > 100 µM | SK-MEL-28 > 100 µM | SK-MEL-5 > 100 µM | SK-OV-3 > 100 µM | UACC-257 > 100 µM

COc1c(Cl)ccc(Cl)c1-c1nnc(-c2c(Cl)c(Cl)c(Cl)c(Cl)c2-c2nc3cc(C(=O)c4ccccc4)ccc3[nH]2)o1
inactive: A498 24.8 µM | ACHN > 100 µM | EKVX 45.4 µM | HL-60 34.5 µM | HOP-62 43.5 µM | LOX IMVI 54.1 µM | M14 50.9 µM | MDA-MB-435 21.4 µM | Malme-3M 47.1 µM | NCI-H226 26.5 µM | OVCAR-3 53.2 µM | OVCAR-5 > 100 µM | RPMI-8226 23.8 µM | SF-268 57.1 µM | SK-MEL-28 47.2 µM | SK-MEL-5 16.6 µM | SK-OV-3 > 100 µM | UACC-257 82.2 µM

CCOC(=O)C1=C(C)NC(c2ccccc2)=C(C(=O)OCc2ccccc2)C1C#Cc1ccccc1 (stereo unspecified)
inactive: A498 > 100 µM | EKVX > 100 µM | HL-60 > 100 µM | HOP-62 > 100 µM | LOX IMVI > 100 µM | M14 > 100 µM | MDA-MB-435 > 100 µM | Malme-3M > 100 µM | NCI-H226 > 100 µM | OVCAR-3 > 100 µM | OVCAR-5 > 100 µM | RPMI-8226 > 100 µM | SF-268 > 100 µM | SK-MEL-5 > 100 µM | SK-OV-3 > 100 µM | UACC-257 > 100 µM
